Columns and labels:
[1] = 100 kPa, Liquid; for viscosity: Capillary tube (Ostwald / Ubbelohde) method; for speed of sound: Frequency=2 MHz, Linear variable-path acoustic interferometer; for mass density: Vibrating tube method
[2] = xn = mol fraction of the nth substance listed; conditions: 100 kPa, Liquid, x2 = 0; for viscosity: Capillary tube (Ostwald / Ubbelohde) method; for speed of sound: Frequency=2 MHz, Linear variable-path acoustic interferometer; for mass density: Vibrating tube method

CCN(CC)c1ccccc1 [N,N-diethylaniline]
[1]
Conditions	mass density [kg/m3]	speed of sound [m/s]	viscosity [mPa·s]
303.15 K	925.8	1432	1.711
308.15 K	921.8	1416	1.537
313.15 K	917.9	1398	1.4
318.15 K	913.8	1378	1.276

CCCCCCCCCCO [decan-1-ol] + CCN(CC)c1ccccc1
[2]
Conditions	mass density [kg/m3]	speed of sound [m/s]	viscosity [mPa·s]
303.15 K	822.89	1363.5	9.751
308.15 K	819.54	1344.2	8.138
313.15 K	815.95	1328.5	6.846
318.15 K	811.35	1320.5	5.879

CCCCCCCCCO [nonan-1-ol]
[1]
Conditions	mass density [kg/m3]	speed of sound [m/s]	viscosity [mPa·s]
303.15 K	821.36	1357	7.809
308.15 K	817.54	1334	6.499
313.15 K	814.05	1313	5.665
318.15 K	808.97	1293.5	4.676

CCCCCCCCCO [nonan-1-ol] + CCN(CC)c1ccccc1
[2]
Conditions	mass density [kg/m3]	speed of sound [m/s]	viscosity [mPa·s]
303.15 K	821.36	1357	7.809
308.15 K	817.54	1334	6.499
313.15 K	814.05	1313	5.665
318.15 K	808.97	1293.5	4.676

CCCCCCCCO [octan-1-ol] + CCN(CC)c1ccccc1
[2]
Conditions	mass density [kg/m3]	speed of sound [m/s]	viscosity [mPa·s]
303.15 K	818.25	1333.5	6.405
308.15 K	814.72	1312.5	5.422
313.15 K	810.07	1295.4	4.625
318.15 K	805.52	1282.5	4.051
